Assay results from PMC5636120, “Biochemical characterization of recombinant influenza A polymerase heterotrimer complex: Polymerase activity and mechanisms of action of nucleotide analogs” (PLoS ONE, 2017).
Where “and” joins values, the source holds several entries; their conditions need not be identical. Equal values may be shown once. Read-outs that look alike come from different tables or passages of the source.

What was measured:
[1] = system: influenza A (A/Hong Kong/8/68); experiment: Antiviral activity (virus-induced cytopathic effect, CellTiterGlo) in infected MDCK cells; type: cell-based, Influenza A virus A/Hong Kong/8/68; conditions: for EC50: MDCK cells infected with Influenza A/HK/68, MOI 0.005, five day incubation, nucleoside form
Experimental: MDCK cells were seeded in 96-well plates at a density of 1 × 10^4 cells per well in 100 μL of MEM medium supplemented with 10% FBS. Medium was removed the next day and the cells were washed twice with 100 μL MEM medium supplemented with 0.125% (w/v) BSA (MEM-BSA). Serially diluted compounds were added to cells in 150 μL MEM-BSA and cells were infected with influenza A (A/Hong Kong/8/68, Advanced Biotechnologies Inc.) at MOI 0.005 in 50 μL of MEM-BSA medium supplemented with 8 μg/mL trypsin (Worthington, Lakewood, NJ). After five day incubation at 37°C, virus-induced cytopathic effect was determined by adding CellTiterGlo viability reagents (Promega, Madison, WI) and the luminescence signal was measured using Perkin Elmer’s Envision MultiLabel plate reader (Santa Clara, CA). The cytotoxicity of compounds in MDCK cells was determined in replicate plates with the same setup as used in the antiviral assay, except no virus was added to the cell culture. EC50 and CC50 values were calculated by non-linear regression analysis using GraphPad Prism (La Jolla, CA) and four parameter logistic sigmoidal dose-response (variable slope) equations.

in vitro = conditions: dog
[2] = target: T1, recombinant influenza RdRp (PA/PB1/PB2 heterotrimer) (Influenza A virus, UniProt P03431); experiment: Apparent binding affinity (Kapp), single nucleotide incorporation; type: biochemical, Influenza A virus H1N1 strain A/PR/8; conditions: for Selectivity factor, Kapp(analog):Kapp(GTP): natural GTP over analog; for Kapp: SNI-G template, ApG primer, 37°C, 35 minutes, concentration converting half of 9-mer to 10-14-mer
Experimental: (§1) The PA, PB1 and PB2 genes of Influenza A virus RNA polymerase were amplified by reverse-transcription and PCR from H1N1 strain A/PR/8. The 3x FLAG tag was added to the N-terminal full-length PA and cloned into pFastBac1 vector (Life Technologies, Carlsbad, CA). Full-length PB1 and PB2 genes were cloned into pFastBac Dual vector (Life Technologies) as described previously. Recombinant baculovirus was generated for PA and PB1/PB2 using Sf9 cells and was used to co-infect Trichopulsia ni cells (Hi5) at 1.5 x 10^6 cells/ml in ESF-921 medium (Expression Systems, David, CA). Purification and biochemical characterization of the polymerase heterotrimer was described previously. The purified polymerase complex was stored at -80°C prior use.
The apparent binding affinity Kapp was determined for GTP and T-1106-TP as described by Jin et al. 250 nM recombinant polymerase trimer was pre-incubated with 2.5 μM SNI-G template, 1 μM SNI-Pro promoter, and 400 μM ApG primer in a buffer containing 40 mM Tris-HCl (pH 7.0), 20 mM NaCl, 5 mM MgCl2, 2 mM DTT, and 0.2 U/μL RNasin at 37°C. The reaction was initiated by adding a mixture of 25 μM CTP, 25 μM UTP, 25 μCi of α-^33P-UTP, and various concentrations of GTP or analogs. Reactions proceeded for 35 minutes and were quenched with equal volumes of loading dye containing 90% formamide, 100 mM EDTA, 0.1% (w/v) amount of bromphenol blue and xylene cyanol. The products were separated by 25% PAGE, visualized, and quantified by autoradiography as described above. Data were fit with Eq I, where %Max and %Min are respectively the ratios of (10+11+12+13+14-mer)/ (9+10+11+12+13+14-mer) at the highest nucleotide concentration and the baseline level of mis-incorporation of CTP/UTP in the absence of the correct nucleotide (GTP) encoded by the template sequence, Kapp is the concentration at which half of the reactant (9-mer) is converted to products (10+11+12+13+14-mers), and S is the concentration of nucleotide analog.
Y=(%Max−%Min)⋅S/Kapp+S+%Min (I)

[3] = target: T1, recombinant influenza RdRp (PA/PB1/PB2 heterotrimer); parameters: method as in PMID 23874596; conditions: cited from earlier work
[4] = target: recombinant influenza polymerase trimer (RdRp) (Influenza A virus, UniProt P03431); experiment: Mechanism of action, gel-based incorporation assay with miniHA template and capped 33P-m7G167 primer; type: biochemical, Influenza A virus H1N1 strain A/PR/8; conditions: 500 μM analog in place of GTP, 500 μM each CTP, UTP, ATP, miniHA template
Experimental: as §1
Recombinant influenza polymerase trimer (80 ng/μL) was incubated with 595 nM ^33P-m^7G^167 and 1.6 μM miniHA template in buffer containing 50 mM HEPES (pH 7.8), 2 mM DTT, 5 mM magnesium acetate, 0.2 U/mL RNasin for 60 minutes at 37°C. After the endonuclease cleavage of ^33P-m^7G^167 was completed, 20 μM of endonuclease inhibitor 4-(1,4-bis(4-chlorobenzyl)piperidin-4-yl)-2,4-dioxobutanoic acid was added to the reaction mixture. The polymerase reactions were initiated by adding nucleotide analogs and three other natural NTPs (all at final concentrations of 500 μM) and 10 μCi α-^33P-ATP. Reactions were incubated at 37°C for 30 minutes and quenched with equal volumes of gel loading dye containing 90% formamide, 100 mM EDTA, 0.1% (w/v) bromphenol blue and xylene cyanol. Reactions were analyzed by electrophoresis (25% polyacrylamide, 8 M urea). The dried gels were exposed to phosphorimager screen and visualized using the Typhoon Trio and ImageQuant Software (GE, Piscataway, NJ.)

[5] = target: concentrated cRNP with endogenous viral template (Influenza A virus, UniProt P03431); conditions: 500 μM natural NTPs and/or analogs, 60 minutes
[6] = target: viral ribonucleoprotein complexes from detergent-disrupted Influenza A/PR/8/34 (Influenza A virus, UniProt P03431); experiment: Influenza polymerase inhibition (IC50) filter binding assay, ApG-primed RNA synthesis by cRNP; conditions: vs T-705-RTP
[7] = Influenza A virus, MDCK, 120 h, read-out: EC50

With `NC(=O)c1nccn([C@@H]2O[C@H](CO)[C@@H](O)[C@H]2O)c1=O` [T-1106] the EC50 [1, 7] was 27 ± 6 µM and the CC50 at 5 day (in vitro) was over 100 µM.
For `Nc1nc2c(ncn2[C@@H]2O[C@H](COP(=O)(O)OP(=O)(O)OP(=O)(O)O)[C@@H](O)[C@H]2O)c(=O)[nH]1` [GTP], the “Selectivity factor, Kapp(analog):Kapp(GTP)” value [2] is given as 1 and the “Kapp, reported value” [3] is given as 8 nM.
With `NC(=O)c1nc(F)cn([C@@H]2O[C@H](COP(=O)(O)OP(=O)(O)OP(=O)(O)O)[C@@H](O)[C@H]2O)c1=O` [T-705-RTP] the “Mode of action on RNA synthesis” value [4] was “delayed chain-termination” and the “Incorporation / mode of action in cRNP reactions” value (“Incorporation / mode of action” for short) [5] was “neither incorporation”.
In the case of `C=C[C@]1(CO)O[C@@H](n2cnc3c(=O)[nH]c(N)nc32)[C@H](F)[C@@H]1O` [4’vinyl-FdG], the EC50 ([1]; Influenza A virus, MDCK, 120 h) is reported as 110 µM, the EC50 ([1]; read-out: EC50) is reported as 116 ± 48 µM and the CC50 at 5 day (in vitro) is reported as over 200 µM.
For `Nc1nc2c(ncn2[C@@H]2O[C@H](COP(=O)(O)OP(=O)(O)OP(=O)(O)O)[C@@H](O)[C@H]2F)c(=O)[nH]1` [2’FdGTP], the “Mode of action on RNA synthesis” value [4] was “stably incorporated into RNA” and the “Incorporation / mode of action” value [5] was “stable incorporation”.
In the case of `C=C[C@]1(COP(=O)(O)OP(=O)(O)OP(=O)(O)O)O[C@@H](n2cnc3c(=O)[nH]c(N)nc32)[C@H](F)[C@@H]1O` [4’vinyl-FdGTP], the Kapp [2] is reported as 29 µM, the Kapp ([2]; listed as 4'vinyl-FdGTP) is reported as 29.1 µM and the “Selectivity factor, Kapp(analog):Kapp(GTP)” value [2] is reported as 3096. The “Mode of action on RNA synthesis” value [4] was “direct chain-termination”.
`Nc1nc2c(ncn2[C@@H]2O[C@H](CO)[C@@H](O)[C@H]2F)c(=O)[nH]1` [2’FdG, 2’-deoxy, 2’F guanosine] showed an EC50 ([1]; Influenza A virus, MDCK, 120 h) of 18 µM, an EC50 ([1]; read-out: EC50) of 19 ± 5 µM and a CC50 at 5 day (in vitro) of over 200 µM.
Work on `N#C[C@]1(CO)O[C@@H](n2cnc3c(=O)[nH]c(N)nc32)[C@H](F)[C@@H]1O` [4’CN-FdG] yielded an EC50 [1, 7] of over 200 µM and a CC50 at 5 day (in vitro) of over 200 µM.
For `NC(=O)c1nc(F)c[nH]c1=O` [T-705], the EC50 ([1]; Influenza A virus, MDCK, 120 h) was 2.2 µM, the EC50 ([1]; read-out: EC50) was 2.4 ± 1.1 µM and the CC50 (in vitro) was over 100 µM.
For `NC(=O)c1nccn([C@@H]2O[C@H](COP(=O)(O)OP(=O)(O)OP(=O)(O)O)[C@@H](O)[C@H]2O)c1=O` [T-1106-TP], the “Fold less potent than T-705 in the antiviral assays” value ([1]; vs T-705, MDCK cells) was 12, the “Times lower selectivity factor than the reported selectivity over T-705-TP” value ([2]; compared with reported selectivity) was 6.3 and the “Selectivity factor, Kapp(analog):Kapp(GTP)” value [2] was 3 and 2.9. For the same molecule, the “Mode of action on RNA synthesis” value [4] was “delayed chain termination”, the “Incorporation / mode of action” value [5] was “incorporation and chain termination” and the “Fold more potent (lower enzymatic IC50) than T-705-RTP in the biochemical assay” value [6] was 3.
For `N#CC1(COP(=O)(O)OP(=O)(O)OP(=O)(O)O)OC(n2cnc3c(=O)[nH]c(N)nc32)C(F)C1O` (stereo not drawn) [4’CN-FdGTP], the “Mode of action on RNA synthesis” value [4] was “direct chain-termination”.
